The results in this text go back to article PMC12095047, “Transport of phenoxyacetic acid herbicides by PIN-FORMED auxin transporters” (Nature Plants, 2025).

A word on the EC50: it is the concentration that produces a half-maximal response. High values mean a need for much substance, low ones an effect from little substance. As a reminder, the Kd is a measure of binding affinity in units of concentration. As a reminder, the inhibition is how much of the control response was suppressed.

The structures appear in SMILES notation. Several values for one entry are separate records, joined by “and”; a condition that tells them apart may be missing. Equal values may be shown once. Read-outs that look alike come from different tables or passages of the source.

For experiment [1], the target named is T1, PIN8 (Arabidopsis thaliana, UniProt Q9LFP6).
T1 construct: made in house
T1 sequence (Q9LFP6 1-367): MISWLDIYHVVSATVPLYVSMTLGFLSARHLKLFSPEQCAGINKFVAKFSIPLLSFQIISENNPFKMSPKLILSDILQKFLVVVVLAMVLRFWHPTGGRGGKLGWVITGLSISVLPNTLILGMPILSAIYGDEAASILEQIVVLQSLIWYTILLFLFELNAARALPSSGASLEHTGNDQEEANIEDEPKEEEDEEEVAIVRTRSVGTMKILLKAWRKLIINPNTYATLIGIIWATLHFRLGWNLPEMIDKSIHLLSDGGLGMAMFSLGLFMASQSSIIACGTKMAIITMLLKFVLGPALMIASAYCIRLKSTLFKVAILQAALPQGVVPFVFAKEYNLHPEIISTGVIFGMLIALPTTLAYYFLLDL
Nature of the experiment: Xenopus oocyte efflux assay, PIN8. The experiment is classed as cell-based. Particulars: for Rel. 2,4-D transport rate: [3H]-2,4-D export by PIN8 from oocytes, individual experiments. How it is done:
Oocyte efflux experiments were carried out as described[12],[20],[26]. Briefly, oocytes were injected with 150 ng transporter complementary RNA without or with 75 ng kinase cRNA. [^3H]-IAA (25 Ci mmol^−1) and [^3H]-4-CPA (37.7 Ci mmol^−1) was purchased from RC Tritec. [^3H]-2,4-D (25 Ci mmol^−1) was purchased from ARC. Oocytes were injected with substrate to reach an internal concentration of 1 µM, corresponding to 100%. Residual radioactivity was determined for each individual oocyte by liquid scintillation counting after the time points indicated and are expressed relative to the initial 100%. Each time point represents the mean and s.e. of ten oocytes. To calculate the relative transport rate in percentage per minute, linear regression was performed. Each data point in Fig. 1b,c and Extended Data Fig. 2b,e represents the transport rate of one biological replicate using oocytes collected from different Xenopus females.

The target of experiment [2] is T2, A. thaliana PIN8 (Arabidopsis thaliana, UniProt Q9LFP6).
T2 construct: made in house
T2 sequence (Q9LFP6 1-367): T1 sequence (Q9LFP6 1-367)
The experiment can be described thus: SSM electrophysiology, peak current response on PIN8 proteoliposomes. The format is biochemical. Particulars: for Peak current: individual sensors. How it is done: (§1) SSM, using a SURFE2R N1 from Nanion Technologies, was conducted as described. In brief, soy polar lipid mix (38% phosphatidyl choline, 30% phosphatidyl ethanolamine, 18% phosphatidyl inositol, 7% phosphatidic acid and 7% other soy lipids) and 1-palmitoyl-2-oleoyl-sn-glycero-3-phosphocholin were purchased from Avanti. Liposomes were prepared in Ringer solution without Ca^2+ (115 mM NaCl, 2.5 mM KCl, 1 mM NaHCO3, 10 mM HEPES pH7.4, 1 mM MgCl2) and homogenized using a Lipsofast (Avestin) with a […]. Triton X-100 was added to the liposomes to a final concentration of 1% (v/v). Protein was added to liposomes to a calculated lipid-to-protein ratio (LPR) of 10 unless stated otherwise. The detergent was removed using 400 mg ml^−1 Bio Beads (BioRad) overnight at 4 °C in a rotary shaker. Proteoliposomes were frozen in liquid nitrogen and kept at −80 °C until use. Proteoliposomes were diluted 1:5 in Ringer solution without Ca^2+, sonicated five times and then applied to the sensors by centrifugation (30 min, 3,000 g, 4 °C). Non-activating buffer was Ringer solution without Ca^2+ as described unless specified otherwise, and activating buffer contained the substrate of interest. In most instances we used a single-solution exchange experiment. In this case proteoliposomes, immobilized on the supported membrane, are kept in non-activating buffer as specified. At the beginning of the experiment the non-activating buffer is replaced with fresh identical non-activating buffer, and after 1 s, activating buffer (same buffer containing substrate) is added. After another second, the buffer is replaced with non-activating buffer again. Current response is recorded throughout the entire 3 s. For competition or inhibition, the respective compound was present in non-activating and activating solutions. Each experiment was performed on at least two individual sensors. On each sensor each measurement consists of three technical replicates where the mean is calculated. KD values were determined as described previously. Briefly, the binding current induced by 100 µM NPA was recorded in the presence of different concentrations of the substrate under investigation ranging between 0 µM and 1,000 µM present in the activating solution and the non-activating solution (Extended Data Fig. 5b). […] The maximum peak current was then plotted as a function of the concentration of the substrate under investigation and plotted against the degree of inhibition and fitted with a one-site binding model using GraphPad Prism V10.4.1 The half maximal concentration corresponds to the KD of the substrate under investigation.

For experiment [3], the system named is A. thaliana stem segments of pin1 mutants. Nature of the experiment: Arabidopsis stem transport assay, pin1 mutant. The format is in vivo, Arabidopsis thaliana. The conditions noted are these: for CPM: sheet EDF2I. The procedure: Arabidopsis stem transport assays were carried out as described. Briefly, 2 cm stem sections were cut above the rosette of 5-week-old plants and placed in inverted orientation into auxin transport buffer containing 500 pM IAA, 1% (wt/vol) sucrose, 5 mM 2-(N-morpholino)ethanesulfonic acid, pH 5.5 with or without 100 μM NPA. After 2 h the stems were transferred into auxin transport buffer containing 417 nM [^3H]-IAA or [^3H]-2,4-D as a substrate in the absence and presence of NPA. After 2 h, 5 mm segments were dissected, and the substrate was quantified using a liquid scintillation counter.

Experiment [4] deals with T1, PIN8. Nature of the experiment: SSM electrophysiology, KD by inhibition of the NPA binding current. How it is done: as §1
Setting [5] is: WT PIN8 proteoliposomes, Michaelis–Menten fit.

On to `O=C(O)COc1ccc(Cl)cc1Cl` [2,4-D, 2,4-dichlorophenoxyacetic acid], for which the “transport rate of export from oocytes relative to IAA” value in experiment [1] (PIN8, NPA-sensitive export) is “about half of that determined for IAA”. Further, the “Rel. 2,4-D transport rate” value in experiment [1] (NPA + (10 μM)) is 0.7325 % exported/min and 0.3331 % exported/min and 0.3715 % exported/min and 0.009798 % exported/min; in experiment [1] (NPA -) it was 1.122 % exported/min and 0.7012 % exported/min and 0.7258 % exported/min and 0.8004 % exported/min. The Peak current in experiment [2] (100 μM 2,4-D, absence of NPA) was 3.226 nA and 5.875 nA; in experiment [2] (100 μM 2,4-D, presence of 20 µM NPA), 0.9715 nA and 1.501 nA and 1.34 nA; in experiment [2] (WT, 5 µM substrate), 0.6835 nA and 0.6464 nA and 0.7573 nA; in experiment [2] (WT, 20 µM substrate) it was 2.106 nA and 1.934 nA and 2.262 nA; in experiment [2] (WT, 50 µM substrate) it was 4.032 nA and 3.705 nA; in experiment [2] (WT, 2000 µM substrate), 15.4919 nA and 14.1952 nA and 17.3107 nA. In addition, the EC50 in experiment [2] (setting [5]) is 180 µM and 179 µM. In addition, in experiment [2] (setting [5]), the “maximal current Imax” value worked out at 17 ± 2 nA. Also, the “transport in stem segments” value in experiment [3] (pin1 mutants) is recorded as “completely abolished”. Besides, the CPM in experiment [3] (pin1, + NPA, Segment 1, single stems) was 52 CPM and 51 CPM and 42 CPM and 38 CPM; in experiment [3] (pin1, + NPA, Segment 2, single stems), 52 CPM and 31 CPM and 27 CPM and 33 CPM; in experiment [3] (pin1, - NPA, Segment 2, single stems) it was 18 CPM and 32 CPM and 22 CPM and 34 CPM and 25 CPM. Also, the Kd in experiment [4] (Peak current, sheet F2A (Fig. 2a, KD of substrate binding), individual sensors) was 64.4 µM and 50.6 µM and 62.3 µM; in experiment [4] (inhibition of peak current elicited by 100 µM NPA, read-out: KD of substrate binding by PIN8) it was 59 ± 7 µM. In addition, the inhibition at 20 µM in experiment [4] (read-out: Rel. Inhibition of NPA peak currents, 20 µM substrate, 100 µM NPA, individual sensors) worked out at 22.5%. In addition, the inhibition at 50 µM in experiment [4] (read-out: Rel. Inhibition of NPA peak currents, 50 µM substrate, 100 µM NPA, individual sensors) worked out at 46.2%. In experiment [4] (read-out: Rel. Inhibition of NPA peak currents, 100 µM substrate, 100 µM NPA, individual sensors), the inhibition at 100 µM worked out at 65.6%. Besides, in experiment [4] (read-out: Rel. Inhibition of NPA peak currents, 250 µM substrate, 100 µM NPA, individual sensors), the inhibition at 250 µM amounted to 83.2%. Moreover, the inhibition at 500 µM in experiment [4] (read-out: Rel. Inhibition of NPA peak currents, 500 µM substrate, 100 µM NPA, individual sensors) worked out at 91.1%. In experiment [4] (read-out: Rel. Inhibition of NPA peak currents, 1000 µM substrate, 100 µM NPA, individual sensors), the inhibition at 1000 µM came to 95.2%.
